The values that follow come from ChEMBL document CHEMBL1124199, “Thienylpyrazoloquinolines: potent agonists and inverse agonists to benzodiazepine receptors” (J Med Chem, 1988).

The target in assay [1] is GABA-A receptor; anion channel. The experiment in a line: Binding affinity against benzodiazepine (BZ) receptor by displacing [3H]diazepam in cerebral cortex of Wistar rats. Format: tissue-based, Rattus norvegicus.
In assay [2] the test system is Mus musculus. Kind of assay: Agonist activity was evaluated by the inhibition of the pentylenetetrazole (PTZ) induced convulsions after peroral administration. Format: functional. Conditions: po.
Assay [3] relates to Mus musculus. Kind of assay: Agonist activity was evaluated by the inhibition of the pentylenetetrazole (PTZ) induced convulsions after peroral administration; Inactive up to 50 mg/kg. The class given is functional, organism-based. Details: dose 50 mg/kg.
Assay [4] concerns Mus musculus. The experiment in a line: Inverse agonist activity of orally administered compound against a subcutaneous dose of 90 mg/kg of PTZ-induced convulsions in mice. The class given is functional. Conditions: route oral.
Assay [5] deals with Mus musculus. The experiment in a line: Inverse agonist activity of orally administered compound against a subcutaneous dose of 50 mg/kg of PTZ-induced convulsions in mice. Format: functional. Conditions: route oral.
Assay [6] concerns Mus musculus. The experiment in a line: Inverse agonist activity of orally administered compound against a subcutaneous dose of 90 mg/kg of PTZ-induced convulsions in mice; inactive up to 50 mg/kg. Format: functional, organism-based.
Assay [7] has as its system Mus musculus. Kind of assay: Inverse agonist activity of orally administered compound against a subcutaneous dose of 75 mg/kg of PTZ-induced convulsions in mice; inactive up to 50 mg/kg. Format: functional, organism-based.
Assay [8] relates to Mus musculus. The experiment in a line: Inverse agonist activity of orally administered compound against a subcutaneous dose of 90 mg/kg of PTZ-induced convulsions in mice; Inactive up to 50 mg/kg. The class given is functional, organism-based.
Assay [9] relates to Mus musculus. The experiment in a line: Inverse agonist activity of orally administered compound against a subcutaneous dose of 90 mg/kg of PTZ-induced convulsions in mice; Inactive. The class given is functional, organism-based. Also noted: dose 90 mg/kg.
Assay [10] concerns Mus musculus. Kind of assay: Inverse agonist activity of orally administered compound against a subcutaneous dose of 90 mg/kg of PTZ-induced convulsions in mice; inactive. The class given is functional, organism-based. Details: dose 90 mg/kg.
The subject of assay [11] is Mus musculus. Kind of assay: Inverse agonist activity of orally administered compound against a subcutaneous dose of 75 mg/kg of PTZ-induced convulsions in mice. The class given is functional. Conditions: route oral.
Assay [12] has as its system Mus musculus. Kind of assay: Inverse agonist activity of orally administered compound against a subcutaneous dose of 50 mg/kg of PTZ-induced convulsions in mice; expressed as percent of mice affected. The class given is functional. Conditions: route oral.
In assay [13] the test system is Mus musculus. The experiment in a line: Inverse agonist activity of orally administered compound against a subcutaneous dose of 90 mg/kg of PTZ-induced convulsions in mice expressed as percent of mice affected. The class given is functional. Conditions: route oral.
The test system of assay [14] is Mus musculus. The experiment in a line: Inverse agonist activity of orally administered compound against a subcutaneous dose of 75 mg/kg of PTZ-induced convulsions in mice; Inactive up to 50 mg/kg. The class given is functional, organism-based.
The subject of assay [15] is Mus musculus. The experiment in a line: Agonist activity was evaluated by the inhibition of the pentylenetetrazole (PTZ) induced convulsions after peroral administration at 50 mg/kg. The class given is functional. Conditions: route oral.

Active and inactive are the calls of the source. No cut-off for these calls is given here.

A word on the Ki: it is the equilibrium dissociation constant of an inhibitor or competing ligand from its target. A higher Ki goes with weaker binding. The ED50 is the midpoint of the dose-response relation. For `Cc1ccc(-n2[nH]c3c(cnc4c(F)cccc43)c2=O)s1`, the Ki in assay [1] was 0.92 nM. In addition, the ED50 in the assay on Mus musculus [2] was found to be 30.4 mg/kg.

`O=c1c2cnc3ccccc3c2[nH]n1-c1cccs1` returned an inhibition constant Ki in assay [1] of 0.41 nM. In addition, the ED50 result in the assay with Mus musculus [3] is “inactive”. Also, the ED50 in the assay with Mus musculus [4] worked out at 9.54 mg/kg. Also, the Animals affected in the assay with Mus musculus [5] is on record as 50%.

Compound `Cc1cc(-n2[nH]c3c(cnc4ccccc43)c2=O)c(Br)s1` displayed a Ki in assay [1] of 27.2 nM. In addition, the ED50 entry in the assay with Mus musculus [3], with Mus musculus [6] and with Mus musculus [7] was “inactive” throughout.

The compound `Cc1ccc(-n2[nH]c3c(cnc4cc(Cl)ccc43)c2=O)s1` showed a Ki in [1] of 1.05 nM. In addition, the ED50 entry with Mus musculus [3] and in the assay with Mus musculus [8] was “inactive” throughout.

`Cc1ccc2c(c1)ncc1c(=O)n(-c3ccc(C)s3)[nH]c12` registered a Ki in [1] of 2.34 nM. For the same compound, the ED50 entry with Mus musculus [3] and in the assay with Mus musculus [9] was “inactive” throughout.

In assay [1], `O=C1C2C=Nc3ccccc3C2=NN1c1ccc(Cl)cc1` (centres undefined) [CGS-9896] gave a Ki of 0.83 nM. In the assay with Mus musculus [2], this compound registered an ED50 of 1.17 mg/kg.

With `COC(=O)c1sccc1-n1[nH]c2c(cnc3ccccc32)c1=O`, in assay [1], affinity was put at a Ki of 142 nM. Further, the ED50 entry with Mus musculus [3], with Mus musculus [7] and in the assay on Mus musculus [10] was “inactive” throughout.

On to `Cc1ccc(-n2nc3c4ccccc4n(C)cc-3c2=O)s1`, for which the Ki in assay [1] stood at 1020 nM. This compound returned an ED50 in the assay on Mus musculus [2] of 13.4 mg/kg.

In assay [1], `Cc1cc(-n2[nH]c3c(cnc4c(Cl)cccc43)c2=O)cs1` yielded a Ki of 0.63 nM. For the same compound, the values for the ED50 in the assay with Mus musculus [11] and in the assay on Mus musculus [4] were 13.5 mg/kg and 7.7 mg/kg, respectively.

With `Cc1cc(C(=O)O)c(-n2[nH]c3c(cnc4ccccc43)c2=O)s1`, in [1], the affinity corresponds to a Ki of 21.6 nM. The ED50 result in the assay with Mus musculus [3] and in the assay on Mus musculus [8] was “inactive” in each case.

In the case of `Cc1cc(-n2[nH]c3c(cnc4cc(Cl)ccc43)c2=O)cs1`, the affinity in [1] corresponds to a Ki of 0.78 nM. The ED50 result in the assay on Mus musculus [3], with Mus musculus [6] and with Mus musculus [7] was “inactive” throughout.

`Cc1cc(-n2[nH]c3c(cnc4cc(F)ccc43)c2=O)cs1` came in with a Ki in [1] of 0.64 nM. This compound also came in with an Affected animals with Mus musculus [12] of 37.7%. The compound also yielded an ED50 with Mus musculus [4] of 6.15 mg/kg.

`O=c1c2cnc3ccccc3c2[nH]n1-c1ccc(Cl)s1` had a Ki in assay [1] of 2.48 nM. Also, in the assay with Mus musculus [3], the ED50 result is “inactive”. Further, the Affected animals with Mus musculus [13] was 25%.

`O=c1c2cnc3ccccc3c2[nH]n1-c1ccsc1`: in assay [1], the affinity, expressed as Ki, was 0.73 nM. For the same compound, the figures for the median effective dose (ED50) with Mus musculus [11] and in the assay on Mus musculus [4] were 7.62 mg/kg and 2.49 mg/kg, respectively.

`Cc1ccc(-n2[nH]c3c(cnc4cc(F)ccc43)c2=O)s1` displayed a Ki in assay [1] of 0.65 nM. In the assay on Mus musculus [2], this compound had an ED50 of 16.3 mg/kg.

With `Cc1csc(-n2[nH]c3c(cnc4ccccc43)c2=O)c1`, the inhibitory constant (Ki) in assay [1] amounted to 0.48 nM. Moreover, the ED50 result in the assay on Mus musculus [3] and with Mus musculus [7] was “inactive” in each case. In the assay with Mus musculus [13], the Affected animals is 62.5%.

In assay [1], `Cc1cc(-n2nc3c4ccccc4n(C)cc-3c2=O)cs1` yielded an inhibition constant Ki of 215 nM. Besides, the ED50 was determined as 2.94 mg/kg in the assay with Mus musculus [11] and 1.48 mg/kg in the assay with Mus musculus [4].

On to `O=c1c2cnc3ccccc3c2[nH]n1-c1csc(Cl)c1`, for which the Ki in assay [1] came out at 0.73 nM. In addition, the 50% effective dose (ED50) in the assay with Mus musculus [11] turned out to be 23.2 mg/kg; with Mus musculus [4], 11.5 mg/kg.

`Cc1cc(-n2[nH]c3c(cnc4c(C)cccc43)c2=O)cs1`: in [1], the Ki amounted to 0.38 nM. The ED50 with Mus musculus [11] came out at 12.9 mg/kg; in the assay on Mus musculus [4], 5.24 mg/kg.

On to `Cc1cc(-n2[nH]c3c(cnc4ccccc43)c2=O)sc1C`, for which the affinity in assay [1] corresponds to a Ki of 0.73 nM. In the assay with Mus musculus [2], this compound displayed an ED50 of 30.6 mg/kg.

Consider `Cc1cc(-n2[nH]c3c(cnc4ccccc43)c2=O)c(Cl)s1`, for which the Ki in [1] amounted to 4.69 nM. The ED50 entry in the assay with Mus musculus [3], in the assay on Mus musculus [7] and with Mus musculus [9] was “inactive” in each case.

With `CCCCc1ccc(-n2[nH]c3c(cnc4ccccc43)c2=O)s1`, in [1], the Ki worked out at 1.48 nM. The compound also yielded an ED50 with Mus musculus [2] of 12.5 mg/kg.

In [1], `Cc1cc(-n2[nH]c3c(cnc4c(F)cccc43)c2=O)cs1` came in with a Ki of 0.37 nM. Also, the 50% effective dose (ED50) in the assay on Mus musculus [11] is 2.58 mg/kg; with Mus musculus [4], 1.32 mg/kg.

In the assay with Mus musculus [4], `Cc1cc(-n2[nH]c3c(cnc4ccccc43)c2=O)cs1` came in with an ED50 of 0.92 mg/kg.

For the compound `Cc1cscc1-n1[nH]c2c(cnc3ccccc32)c1=O`, the Ki in assay [1] turned out to be 6.86 nM. Moreover, the 50% effective dose (ED50) in the assay with Mus musculus [11] came to 84.4 mg/kg; with Mus musculus [4], 22.3 mg/kg.

In the case of `O=C1C2C=Nc3ccccc3C2=NN1c1ccccc1` (centres undefined), the ED50 entry in the assay on Mus musculus [14] is “inactive”.

Turning to `O=C(O)c1sccc1-n1[nH]c2c(cnc3ccccc32)c1=O`, in assay [1], affinity was put at a Ki of 17.8 nM. Also, the ED50 result in the assay on Mus musculus [3], with Mus musculus [7] and in the assay on Mus musculus [9] was “inactive” throughout.

`CCn1cc2c(=O)n(-c3csc(C)c3)nc-2c2ccccc21`: in assay [1], the Ki came out at 436 nM. Besides, the figures for the median effective dose (ED50) in the assay on Mus musculus [11] and in the assay on Mus musculus [4] were 13.3 mg/kg and 5.24 mg/kg, respectively.

In the case of `CCc1cc(-n2[nH]c3c(cnc4ccccc43)c2=O)cs1`, the affinity in [1], expressed as Ki, was 0.41 nM. The ED50 result in the assay on Mus musculus [7] was “inactive”. In addition, the ED50 with Mus musculus [4] came to 10.3 mg/kg.

In [1], `Cc1ccc(-n2[nH]c3c(cnc4c(C)cccc43)c2=O)s1` displayed an inhibitory constant (Ki) of 0.83 nM. Further, the 50% effect level in the assay with Mus musculus [2] (ED50) was put at a dose of 25 mg/kg. Moreover, the ED50 result in the assay with Mus musculus [8] is “inactive”.

In [1], `Cc1ccc2c(c1)ncc1c(=O)n(-c3csc(C)c3)[nH]c12` showed a Ki of 0.96 nM. The ED50 result with Mus musculus [3] and in the assay on Mus musculus [9] was “inactive” throughout.

In assay [1], `CCc1ccc(-n2[nH]c3c(cnc4ccccc43)c2=O)s1` returned a Ki of 1.02 nM. Further, the ED50 in the assay with Mus musculus [2] came to 14.3 mg/kg.

As for `CCOC(=O)c1cc(C)sc1-n1[nH]c2c(cnc3ccccc32)c1=O`, the inhibitory constant (Ki) in [1] is 9.84 nM. Further, the ED50 entry in the assay with Mus musculus [3] and in the assay on Mus musculus [8] was “inactive” throughout.

Take `Cc1ccc(-n2[nH]c3c(cnc4c(Cl)cccc43)c2=O)s1`: the affinity in assay [1] corresponds to a Ki of 0.75 nM. Moreover, in the assay with Mus musculus [8], the ED50 entry was “inactive”. In the assay with Mus musculus [15], this compound returned an Animals affected of 25%.

Consider `CN1C(=O)CN=C(c2ccccc2)c2cc(Cl)ccc21` [DIAZEPAM], for which the median effective dose (ED50) with Mus musculus [2] turned out to be 0.67 mg/kg.
